According to patent US9555029B2 (HIKMA PHARMACEUTICALS, priority 2013, dated 2017):
Read-outs that look alike come from different tables or passages of the source.

Experiments:
[1] = Incidence of adverse effects for colchicine coadministered with voriconazole
Procedure: Safety was evaluated through assessment of adverse events, standard laboratory evaluations, physical examination (including vital signs) and ECG. Safety was determined by descriptive statistics.

[2] = for AUCT/∞ / Kel / T1/2el: mean
[3] = cited from earlier work; for Kel / T1/2el: arithmetic mean; for AUCT / Cmax: geometric mean
[4] = cited from earlier work; for Kel / T1/2el: arithmetic mean; for AUCT / Cmax: geometric mean; remark: listed apart in the source
clinical = conditions: male, human, in vivo
Excerpt: Subjects were included only if they were not older than 45 years (as opposed to no upper limit). Also, in inclusion criteria the lower threshold for the body mass index was 21.00 (as opposed to 18.00) kg/m^2.

[5] = cited from earlier work
[6] = of 12 subjects, colchicine + voriconazole
[7] = of 12 subjects, voriconazole study
[8] = Treatment-1 (day 1): colchicine 0.6 mg alone, fasted, cimetidine study
[9] = Treatment-2 (day 9): colchicine 0.6 mg + cimetidine 800 mg after double dose day 4, once daily days 5-8, fasted
[10] = of 12 subjects, cimetidine study
[11] = of 12 subjects, colchicine + cimetidine
[12] = Treatment-1: colchicine 0.6 mg alone (day 1, fasted), clarithromycin study
[13] = Treatment-2: colchicine 0.6 mg + clarithromycin 250 mg twice daily (days 22-29)
[14] = Treatment-1: colchicine 0.6 mg alone (day 1, fasted), diltiazem ER study
[15] = Treatment-2: colchicine 0.6 mg (day 21) + diltiazem ER 240 mg once daily (days 15-21)
[16] = colchicine coadministered with azithromycin
[17] = colchicine coadministered with clarithromycin
[18] = colchicine coadministered with cyclosporine
[19] = colchicine coadministered with diltiazem ER
[20] = colchicine coadministered with ketoconazole
[21] = colchicine coadministered with ritonavir
[22] = colchicine coadministered with verapamil ER

COc1cc2c(c(OC)c1OC)-c1ccc(OC)c(=O)cc1[C@@H](NC(C)=O)CC2 [Colchicine, (S)N-(5,6,7,9-tetrahydro-1,2,3,10-tetramethoxy-9-oxobenzo[alpha]heptalen-7-yl)acetamide]
Total number of adverse events after Treatment-2 ([1]; colchicine + voriconazole): 2 | Number of subjects experiencing adverse events after Treatment-2 [1, 6]: 1 | Percent of subjects experiencing adverse events after Treatment-2 [1, 6]: 8.3% | Number of subjects experiencing adverse events after Treatment-1 [1, 7]: 7 | Percent of subjects experiencing adverse events after Treatment-1 [1, 7]: 58.3% | Number of adverse events requiring medication after Treatment-1 ([1]; voriconazole study): None | Number of serious adverse events or deaths ([1]; voriconazole study): None | Total number of adverse events after Treatment-1 ([1]; voriconazole study): 20 | AUCT/∞ [2, 8]: 85.29% | Kel [2, 8]: 0.0201 h⁻¹ | T1/2el [2, 8]: 35.46 h | AUCT/∞ [2, 9]: 86.53% | Kel [2, 9]: 0.0222 h⁻¹ | T1/2el [2, 9]: 31.54 h | Decrease of colchicine Cmax ([2]; coadministration with cimetidine vs colchicine alone): 33% | Decrease of colchicine AUC ([2]; coadministration with cimetidine vs colchicine alone, not significant): 15% | Number of adverse events requiring medication after Treatment-1 (cimetidine study): None | Number of serious adverse events or deaths (cimetidine study): None | Total number of adverse events after Treatment-1 (cimetidine study): 11 | Total number of adverse events after Treatment-2 (colchicine + cimetidine): 2 | Number of subjects experiencing adverse events after Treatment-1 [10]: 7 | Percent of subjects experiencing adverse events after Treatment-1 [10]: 58.3% | Number of subjects experiencing adverse events after Treatment-2 [11]: 1 | Percent of subjects experiencing adverse events after Treatment-2 [11]: 8.3% | Kel [3, 12]: 0.1324 h⁻¹ | T1/2el [3, 12]: 8.89 h | CLTOT/F [3, 12]: 46.8 L/h | AUCT [3, 12]: 12,370 pg · h/mL | Cmax [3, 12]: 2,840 pg/mL | Kel [3, 13]: 0.0296 h⁻¹ | T1/2el [3, 13]: 30.31 h | CLTOT/F [3, 13]: 12.0 L/h | AUCT [3, 13]: 41,950 pg · h/mL | Cmax [3, 13]: 8,440 pg/mL | Kel [4, 14]: 0.1589 h⁻¹ | T1/2el [4, 14]: 5.51 h | CLTOT/F [4, 14]: 58.88 L/h | AUCT [4, 14]: 10,040 pg · h/mL | Cmax [4, 14]: 2,170 pg/mL | Kel [4, 15]: 0.0838 h⁻¹ | T1/2el [4, 15]: 12.5 h | CLTOT/F [4, 15]: 34.7 L/h | AUCT [4, 15]: 12,730 pg · h/mL | Cmax [4, 15]: 2,800 pg/mL | CL/F (clinical; 0.6 mg): 558 mL/min | Tmax (clinical; 0.6 mg): 1.5 h | Vd/F (clinical; 0.6 mg): 1410 L | AUC(0-t) (clinical; 0.6 mg, AUCT GEOMETRIC LSMEANS, Treatment-1: colchicine 0.6 mg alone, propafenone study): 16.2 ng·h/mL | AUC(0-t) (clinical; 0.6 mg, AUCT, Treatment-1 (day 1): colchicine 0.6 mg alone, fasted, propafenone study, mean): 16.6 ng·h/mL | AUC(0-inf) (clinical; 0.6 mg, AUC∞ GEOMETRIC LSMEANS, Treatment-1: colchicine 0.6 mg alone, propafenone study): 18.4 ng·h/mL | AUC(0-inf) (clinical; 0.6 mg, AUC∞, Treatment-1 (day 1): colchicine 0.6 mg alone, fasted, propafenone study, mean): 18.9 ng·h/mL | Cmax (clinical; 0.6 mg, Cmax GEOMETRIC LSMEANS, Treatment-1: colchicine 0.6 mg alone, propafenone study): 2.05 ng/mL | Cmax (clinical; 0.6 mg, Cmax, Treatment-1 (day 1): colchicine 0.6 mg alone, fasted, propafenone study, mean): 2.12 ng/mL | AUC(0-t) (clinical; AUCT GEOMETRIC LSMEANS, Treatment-2: colchicine 0.6 mg + propafenone): 16.4 ng·h/mL | AUC(0-t) (clinical; AUCT, Treatment-2 (day 9): colchicine 0.6 mg + propafenone 225 mg after twice daily days 4-8, fasted, mean): 16.8 ng·h/mL | AUC(0-inf) (clinical; AUC∞ GEOMETRIC LSMEANS, Treatment-2: colchicine 0.6 mg + propafenone): 18.4 ng·h/mL | AUC(0-inf) (clinical; AUC∞, Treatment-2 (day 9): colchicine 0.6 mg + propafenone 225 mg after twice daily days 4-8, fasted, mean): 18.9 ng·h/mL | Cmax (clinical; Cmax GEOMETRIC LSMEANS, Treatment-2: colchicine 0.6 mg + propafenone): 2.18 ng/mL | Cmax (clinical; Cmax, Treatment-2 (day 9): colchicine 0.6 mg + propafenone 225 mg after twice daily days 4-8, fasted, mean): 2.21 ng/mL | Number of 24 subjects with adverse events overall [5, 16]: 11 | Percent of 24 subjects with adverse events overall [5, 16]: (45.8) % | Total number of adverse events [5, 16]: 27 | Number of 24 subjects with adverse events overall [5, 17]: 14 | Percent of 24 subjects with adverse events overall [5, 17]: (58.3) % | Total number of adverse events [5, 17]: 26 | Number of 24 subjects with adverse events overall [5, 18]: 6 | Percent of 24 subjects with adverse events overall [5, 18]: (25.0%) | Total number of adverse events [5, 18]: 5 | Number of 24 subjects with adverse events overall [5, 19]: 14 | Percent of 24 subjects with adverse events overall [5, 19]: (58.3) % | Total number of adverse events [5, 19]: 21 | Number of 24 subjects with adverse events overall [5, 20]: 10 | Percent of 24 subjects with adverse events overall [5, 20]: (41.7) % | Total number of adverse events [5, 20]: 11 | Number of 24 subjects with adverse events overall [5, 21]: 5 | Percent of 24 subjects with adverse events overall [5, 21]: (20.8) % | Total number of adverse events [5, 21]: 8 | Number of 24 subjects with adverse events overall [5, 22]: 14 | Percent of 24 subjects with adverse events overall [5, 22]: (58.3) % | Total number of adverse events [5, 22]: 22
